In patent publication US12624096B2, “Anti-tau antibodies and methods of use thereof” (GTInvent Limited, priority 2020, dated 2026):

Assays:
plasma tau = experiment: Plasma tau (Simoa) in L66+/- mice treated with LMTM; type: in vivo, mouse
Procedure: The effect of the tau aggregation inhibitor LMTM on the levels of plasma tau in a L66^+/− mouse line was investigated with two assays, both utilising the 3-step Simoa® protocols described above. Using the human specific NT1 assay (BT2 capture with Tau12 detection), low levels of tau (0.41±0.09 pg/ml) were detected in the plasma of 5-month-old L66^+/− that were treated with vehicle control solution (FIG. 50A). At the same time, an increase in tau levels was measured in the plasma of L66^+/− mice that had received an oral administration of LMTM (15 mg/kg) during the time period (1.28±0.11 pg/ml).
This hypothesis was supported by our core-proline antibody assay in which S1D12 antibody coated capture beads and BT2 detector was used (FIG. 50B). This assay detects both human and mouse tau which explains the higher levels of tau detected.

dGAE aggregates = dGAE aggregates (Homo sapiens, UniProt P10636); experiment: Epitope occlusion sandwich ELISA (423 mAb capture) of dGAE aggregated with/without LMTM; type: binding; details: LMTM 1:5 ratio
Procedure: During dGAE aggregation in vitro, scAb binding regions on dGA/dGAE are ‘hidden’ or ‘occluded’ which leads to a loss of immunoreactivity in aggregation samples. Here we have shown the occlusion of binding regions in aggregated dGAE samples and the recovery of immunoreactivity in the presence of LMTM, a tau-aggregation inhibitor. For preparing the aggregates, 10 μl 10 mM DTT was added to 1000 μl 100 μM dGAE and agitated with/without LMTM (1:5 ratio) at 700 rpm for 24 h at 37° C. […] The pellet was then resuspended in half the original volume for further experiments. […] Doubling dilutions of dGAE aggregate ‘total’, ‘supernatant’ and ‘pellet’ samples at 10 μg/ml starting concentration were added to designated wells in doubling dilutions in 1×PBS, dGAE monomer (non-aggregated) was included as assay control. All double dilutions were done in final volumes of 100 μl. This was left to incubate on lab bench for 1 h followed by the addition of test scAbs at 10 μg/ml. Anti-HuCk HRP labelled secondary antibody was added as described previously and ELISA data generated is represented using the graph below.

dGAE = dGAE (Homo sapiens, UniProt P10636); experiment: Thioflavin T dGAE aggregation inhibition assay; type: biochemical; details: 10 μM test protein; 100 μM dGAE, 10 mM DTT, 24 h
Procedure: By incubating 100 μM dGAE and 10 mM DTT at 37° C., on a thermomixer at 700 rpm for 24 hours, “pathology mimicking” aggregates which have the morphology of paired helical filaments are formed. This aggregation can be quantified by adding a final concentration of 12.5 μM Thioflavin T (fluorescent dye) which binds to fibril-like β-sheets. Fluorescence was measured with a constant emission wavelength of 480 nm and a scanning excitation wavelength of 350-470 nm using a Varian Cary Eclipse fluorescence spectrophotometer. Maximal fluorescence measurements were used as an indicator of dGAE aggregation (approximately 450 nm excitation). The assay was optimised using a range of S1D12 scAb concentrations (0.04 to 25 µM) and tested for levels of aggregation inhibition as shown in FIG. 35.
Based on FIG. 35, 10 μM scAb was deemed an adequate concentration to compare and rank individual scAb-mediated dGAE aggregation inhibition events. […] A similar inhibition (40%) was seen using 10 μM bovine serum albumin as a negative control (data not shown).

dGAE, sequence (P10636 614-708): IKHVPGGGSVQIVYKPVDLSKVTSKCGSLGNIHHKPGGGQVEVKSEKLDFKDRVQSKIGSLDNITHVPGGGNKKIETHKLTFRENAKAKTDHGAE
dGAE aggregates, sequence (P10636 614-708): as above

| inhibition of dGAE aggregation (dGAE) | Compound | plasma tau, NT1 assay (BT2 capture with Tau12 detection) (plasma tau; 5-month-old L66+/- mice, oral LMTM 15 mg/kg) | plasma tau, core-proline assay (S1D12 capture beads, BT2 detector) (plasma tau; L66+/- mice, LMTM 15 mg/kg) | effect of LMTM on dGAE aggregation and immunoreactivity (dGAE aggregates) |
| --- | --- | --- | --- | --- |
|  | CN(C)c1ccc2c(c1)Sc1cc(N(C)C)ccc1N2.CS(=O)(=O)O.CS(=O)(=O)O [LMTM] | 1.28 ± 0.11 pg/mL | 142.08 ± 12.08 pg/mL | preventing the aggregation event, leading to an increased immunoreactivity |
| 40% | bovine serum albumin: negative control protein in thioflavin T assay [reference compound] |  |  |  |
